Results: patent publication US12649751B2 (Arcus Biosciences, Inc., priority 2022, dated 2026)
Read-outs that look alike come from different tables or passages of the source.

Tests used:
[1] = target: HPK1 (Homo sapiens, UniProt Q92918); experiment: HPK1 Biochemical Assay (ADP-Glo luminescence; low ATP 10 μM or high ATP 200 μM)
[2] = test system: p-SLP-76 (Ser376) in Jurkat cells; experiment: pSLP76 Cellular Assay (AlphaLISA SureFire Ultra p-SLP-76 (Ser376), anti-CD3 activated Jurkat cells); type: cell-based; details: Homo sapiens, read-out: Cellular Potency
Procedure: pSLP76 cellular assay was performed using Jurkat cells and the AlphaLISA SureFire Ultra p-SLP-76 (Ser376) Assay Kit (PerkinElmer). Dose-response assays were performed in Greiner® Low Volume 384-well assay plates containing 200 nL of 22 serial 2-fold compound dilutions using Bravo and Echo. Jurkat cells were grown in RPMI-1640 supplemented with 10% FBS and PSG. The day prior to the assay, the cells were collected, and serum starved overnight in Opti-MEM. The day of the assay, the cells were collected and resuspended in HBSS. 100,000 cells/well were added to the compound plates and after a short spin, the plates were incubated at 37° C. for 1 h. The cells were activated by adding 10 μL of 0.025 mg/ml anti-CD3. Plates were then incubated at 37° C. for 45 min. Stimulation was terminated by adding […], followed by a brief centrifugation and 60 min of shaking at 300 rpm. Cell lysates (10 μL) were transferred to 384-well White Opti-plates and the samples were processed according to the manufacturer's directions. The fluorescence signal from pSLP76 was measured at 570 nm using Envision plate reader. IC50 values were determined by fitting the data to a standard 4-parameter logistic equation. The results are summarized in the Cellular Potency columns in Tables 4 and 5 below (Cellular Potency).

[3] = 2 nM HPK1, 10 μM ATP, read-out: Biochemical Potency (low ATP)
[4] = Jurkat cells, anti-CD3 stimulation, pSLP76
[5] = HPK1 ADP-Glo assay, high ATP (200 μM ATP, 5 nM HPK1), read-out: Biochemical Potency (high ATP)
[6] = pSLP76 (Ser376) AlphaLISA, anti-CD3 activated Jurkat cells
[7] = HPK1 ADP-Glo assay, low ATP (10 μM ATP, 2 nM HPK1), read-out: Biochemical Potency (low ATP)

Sequence of HPK1 (Q92918 whole entry, species assumed): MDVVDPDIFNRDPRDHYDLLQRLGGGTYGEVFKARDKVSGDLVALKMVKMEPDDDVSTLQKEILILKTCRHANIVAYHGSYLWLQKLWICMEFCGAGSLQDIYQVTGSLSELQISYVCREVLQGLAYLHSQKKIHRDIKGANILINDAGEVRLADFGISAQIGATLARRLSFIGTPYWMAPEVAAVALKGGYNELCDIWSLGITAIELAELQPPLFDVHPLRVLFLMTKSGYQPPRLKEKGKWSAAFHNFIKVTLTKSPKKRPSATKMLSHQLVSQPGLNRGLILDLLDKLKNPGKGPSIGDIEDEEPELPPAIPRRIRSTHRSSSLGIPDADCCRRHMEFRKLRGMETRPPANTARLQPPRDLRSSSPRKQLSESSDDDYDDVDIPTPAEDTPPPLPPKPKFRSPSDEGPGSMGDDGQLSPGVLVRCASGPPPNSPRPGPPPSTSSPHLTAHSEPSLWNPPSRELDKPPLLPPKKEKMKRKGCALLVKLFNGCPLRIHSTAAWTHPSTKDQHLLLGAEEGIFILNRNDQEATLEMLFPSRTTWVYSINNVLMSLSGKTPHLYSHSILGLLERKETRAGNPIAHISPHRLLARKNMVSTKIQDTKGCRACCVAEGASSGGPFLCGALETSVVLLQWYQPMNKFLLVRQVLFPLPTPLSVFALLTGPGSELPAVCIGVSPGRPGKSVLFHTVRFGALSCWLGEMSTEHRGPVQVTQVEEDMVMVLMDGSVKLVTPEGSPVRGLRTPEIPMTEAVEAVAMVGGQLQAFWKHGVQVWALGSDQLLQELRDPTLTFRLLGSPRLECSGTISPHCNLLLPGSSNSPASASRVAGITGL

Question: Which results are given for `Cc1cccnc1-c1nc2cc(Nc3cccc(N4C[C@@H]5C[C@H]4CN5)n3)ncc2s1` [Example 78, 6-[(1S,4S)-2,5-Diazabicyclo[2.2.1]heptan-2-yl]-N-[2-(3-methylpyridin-2-yl)-[1,3]thiazolo[5,4-c]pyridin-6-yl]pyridin-2-amine]?
Answer: IC50 [1, 3]: < 100 nM; IC50 [2, 4]: 100 to 1000 nM

Question: For `Cc1cc(Nc2cc3nc(-c4cccc(NC(=O)C5CC5)c4)sc3cn2)nc(N2C[C@@H]3C[C@H]2CN3C)n1` [Example 392], which IC50 [1, 5] is on record?
Answer: < 100 nM

Question: And the IC50 [2, 6]?
Answer: 100 to 1000 nM

Question: With `Cc1c(-c2nc3cc(Nc4ccc(N5CCOCC5)c(CN5CCCC5)n4)ncc3s2)cnc2c1NCCO2` [Example 27, N-(2-{8-Methyl-1H,2H,3H-pyrido[2,3-b][1,4]oxazin-7-yl}-[1,3]thiazolo[5,4-c]pyridin-6-yl)-5-(morpholin-4-yl)-6-[(pyrrolidin-1-yl)methyl]pyridin-2-amine] as the compound, how does the IC50 [1, 3] read?
Answer: < 100 nM

Question: What about the IC50 [2, 4] of the same compound?
Answer: 100 to 1000 nM

Question: Which IC50 [1, 3] does the source give for `Cc1cccnc1-c1nc2cc(Nc3ccc(C4CC4)c(CN4CCCC4)n3)ncc2s1` [Example 262, 5-Cyclopropyl-N-[2-(3-methylpyridin-2-yl)-[1,3]thiazolo[5,4-c]pyridin-6-yl]-6-[(pyrrolidin-1-yl)methyl]pyridin-2-amine] here?
Answer: < 100 nM

Question: And the IC50 [2, 4]?
Answer: 1000 to 5000 nM

Question: What does the source list for `Cc1cc(Nc2cc3nc(-c4cccc(C5(O)CCC5)c4)sc3cn2)nc(N2C[C@@H]3C[C@H]2CN3C)n1` [Example 402]?
Answer: IC50 [1, 5]: < 100 nM; IC50 [2, 6]: 100 to 1000 nM

Question: Which IC50 [1, 5] does the source give for `Cc1cc(Nc2cc3nc(-c4cccc(-c5ncccc5C)c4)sc3cn2)nc(N2C[C@@H]3C[C@H]2CN3C)n1` [Example 586] here?
Answer: < 100 nM

Question: And the IC50 [2, 6]?
Answer: 100 to 1000 nM

Question: For `CS(=O)(=O)c1cccc(-c2nc3cc(Nc4cc(C5CCOCC5)nc(N5C[C@@H]6C[C@H]5CN6)n4)ncc3s2)c1` [Example 443], which IC50 [1, 5] is on record?
Answer: < 100 nM

Question: And the IC50 [1, 7]?
Answer: < 100 nM

Question: And the IC50 [2, 6]?
Answer: < 100 nM

Question: What does the source list for `Cc1cc(Nc2cc3nc(-c4cccc(C5CCOCC5)c4)sc3cn2)nc(N2C[C@@H]3C[C@H]2CN3C)n1` [Example 404]?
Answer: IC50 [1, 5]: < 100 nM; IC50 [2, 6]: 1000 to 5000 nM

Question: Which results are given for `COCCN1C[C@@H]2C[C@H]1CN2c1nc(C)cc(Nc2cc3nc(-c4cccc(C(=O)N(C)C)c4)sc3cn2)n1` [Example 506]?
Answer: IC50 [1, 5]: < 100 nM; IC50 [2, 6]: 100 to 1000 nM

Question: For `CCN1C[C@@H]2C[C@H]1CN2c1nc(C)cc(Nc2cc3nc(-c4cccc(C(=O)NC5CCOCC5)c4)sc3cn2)n1` [Example 532], which IC50 [1, 5] is on record?
Answer: < 100 nM

Question: What about the IC50 [2, 6] of the same compound?
Answer: 100 to 1000 nM

Question: Which results are given for `Cn1cc(-c2nc3cc(Nc4ccc(N5CCOCC5)c(CN5CCCC5)n4)ncc3s2)cn1` [Example 24, N-[2-(1-Methyl-1H-pyrazol-4-yl)-[1,3]thiazolo[5,4-c]pyridin-6-yl]-5-(morpholin-4-yl)-6-[(pyrrolidin-1-yl)methyl]pyridin-2-amine]?
Answer: IC50 [1, 3]: < 100 nM; IC50 [2, 4]: 100 to 1000 nM

Question: With `CCN1C[C@@H]2C[C@H]1CN2c1nc(C)cc(Nc2cc3nc(-c4cncc(N5CCC(F)CC5)c4)sc3cn2)n1` [Example 470] as the compound, how does the IC50 [1, 5] read?
Answer: < 100 nM

Question: And the IC50 [2, 6]?
Answer: 100 to 1000 nM

Question: For `CC(C)c1ccc(Nc2cc3nc(-c4cnn(C)c4)sc3cn2)nc1CN1CCCC1` [Example 227, N-[2-(1-Methyl-1H-pyrazol-4-yl)-[1,3]thiazolo[5,4-c]pyridin-6-yl]-5-(propan-2-yl)-6-[(pyrrolidin-1-yl)methyl]pyridin-2-amine], which IC50 [1, 3] is on record?
Answer: < 100 nM

Question: And the IC50 [2, 4]?
Answer: 100 to 1000 nM

Question: For `Cc1cc(Nc2cc3nc(-c4ccnc(C(C)(C)O)c4)sc3cn2)nc(N2C[C@@H]3C[C@H]2CN3C)n1` [Example 406], which IC50 [1, 5] is on record?
Answer: < 100 nM

Question: What about the IC50 [1, 7] of the same compound?
Answer: < 100 nM

Question: And the IC50 [2, 6]?
Answer: 100 to 1000 nM

Question: For `CC[C@@H]1COCCN1c1cc(-c2nc3cc(Nc4cc(C)nc(N5C[C@@H]6C[C@H]5CN6CC)n4)ncc3s2)ccn1` [Example 475], which IC50 [1, 5] is on record?
Answer: < 100 nM

Question: What about the IC50 [2, 6] of the same compound?
Answer: < 100 nM

Question: What does the source list for `Cc1cc(C(=O)N(C)C)cc(-c2nc3cc(Nc4cc(C)nc(N5C[C@@H]6C[C@H]5CN6CCO)n4)ncc3s2)c1` [Example 562]?
Answer: IC50 [1, 5]: < 100 nM; IC50 [2, 6]: < 100 nM

Question: What does the source list for `Fc1cccc(F)c1-c1nc2cc(Nc3ccc(N4CCOCC4)c(CN4CCCC4)n3)ncc2s1` [Example 17, N-[2-(2,6-Difluorophenyl)-[1,3]thiazolo[5,4-c]pyridin-6-yl]-5-(morpholin-4-yl)-6-[(pyrrolidin-1-yl)methyl]pyridin-2-amine]?
Answer: IC50 [1, 3]: < 100 nM; IC50 [2, 4]: 1000 to 5000 nM

Question: With `CCN1C[C@@H]2C[C@H]1CN2c1nc(Nc2cc3nc(-c4cccc(C(=O)N5CCC(F)CC5)c4)sc3cn2)ccc1C` [Example 321] as the compound, how does the IC50 [1, 5] read?
Answer: < 100 nM

Question: What about the IC50 [2, 6] of the same compound?
Answer: 100 to 1000 nM

Question: `Cc1cccnc1-c1nc2cc(Nc3cccc(N4CCNC5CC54)n3)ncc2s1` (stereo not shown) [Example 87, 6-{2,5-Diazabicyclo[4.1.0]heptan-2-yl}-N-[2-(3-methylpyridin-2-yl)-[1,3]thiazolo[5,4-c]pyridin-6-yl]pyridin-2-amine] was tested. Which IC50 [1, 3] did it give?
Answer: < 100 nM

Question: And the IC50 [2, 4]?
Answer: 1000 to 5000 nM

Question: For `CCN1C[C@@H]2C[C@H]1CN2c1nc(C)cc(Nc2cc3nc(-c4cccc(S(=O)(=O)C5CC5)c4)sc3cn2)n1` [Example 340], which IC50 [1, 5] is on record?
Answer: < 100 nM

Question: And the IC50 [2, 6]?
Answer: < 100 nM

Question: Which IC50 [1, 3] does the source give for `CN1C[C@@H]2C[C@H]1CN2c1nccc(Nc2cc3nc(-c4ccncc4)sc3cn2)n1` [Example 159, 2-[(1S,4S)-5-Methyl-2,5-diazabicyclo[2.2.1]heptan-2-yl]-N-[2-(pyridin-4-yl)-[1,3]thiazolo[5,4-c]pyridin-6-yl]pyrimidin-4-amine] here?
Answer: < 100 nM

Question: What about the IC50 [2, 4] of the same compound?
Answer: 100 to 1000 nM

Question: `Cc1cc(Nc2cc3nc(-c4ccnc(C(C)C)c4)sc3cn2)nc(N2C[C@@H]3C[C@H]2CN3CCO)n1` [Example 354] was tested. Which IC50 [1, 5] did it give?
Answer: < 100 nM

Question: And the IC50 [2, 6]?
Answer: < 100 nM

Question: Which IC50 [1, 5] does the source give for `CC(=O)N(C)c1cccc(-c2nc3cc(Nc4cc(C)nc(N5C[C@@H]6C[C@H]5CN6C)n4)ncc3s2)c1` [Example 396] here?
Answer: < 100 nM

Question: And the IC50 [2, 6]?
Answer: 100 to 1000 nM

Question: `CN1C[C@@H]2C[C@H]1CN2c1nc(Nc2cc3nc(-c4cncc(C(C)(C)O)c4)sc3cn2)cc(C2CCOCC2)n1` [Example 438] was tested. Which IC50 [1, 7] did it give?
Answer: < 100 nM

Question: And the IC50 [2, 6]?
Answer: 100 to 1000 nM

Question: Which IC50 [2, 4] does the source give for `Cc1ccc(Nc2cc3nc(-c4ncccc4C)sc3cn2)nc1OC[C@H](N)C(C)(C)C` [Example 180, 6-[(2R)-2-Amino-3,3-dimethylbutoxy]-5-methyl-N-[2-(3-methylpyridin-2-yl)-[1,3]thiazolo[5,4-c]pyridin-6-yl]pyridin-2-amine] here?
Answer: > 5000 nM

Question: How did the IC50 [2, 4] turn out when `CN1C[C@@H]2C[C@H]1CN2c1cccc(Nc2cc3nc(-c4cccc(S(C)(=O)=O)c4)sc3cn2)n1` [Example 136, N-[2-(3-Methanesulfonylphenyl)-[1,3]thiazolo[5,4-c]pyridin-6-yl]-6-[(1S,4S)-5-methyl-2,5-diazabicyclo[2.2.1]heptan-2-yl]pyridin-2-amine] was run?
Answer: 100 to 1000 nM

Question: How did the IC50 [2, 6] turn out when `Cc1cc(Nc2cc3nc(-c4cccc(C(=O)N(C)C5CCCOC5)c4)sc3cn2)nc(N2C[C@@H]3C[C@H]2CN3CCO)n1` (stereo partly shown) [Example 542] was run?
Answer: < 100 nM

Question: Which IC50 [2, 6] does the source give for `Cc1cc(Nc2cc3nc(-c4cccc(C(=O)N(C)CC5CCOC5)c4)sc3cn2)nc(N2C[C@@H]3C[C@H]2CN3CCO)n1` (stereo partly shown) [Example 557] here?
Answer: 100 to 1000 nM

Question: How did the IC50 [2, 6] turn out when `Cc1cc(Nc2cc3nc(-c4cccc(C(=O)N(C)C5CCOC5)c4)sc3cn2)nc(N2C[C@@H]3C[C@H]2CN3CCO)n1` (stereo partly shown) [Example 559] was run?
Answer: 100 to 1000 nM
